# In PubChem BioAssay (NCI):
#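 Interpolation was linear, between the two tested concentrations surrounding the appropriate level; five concentrations were tested over 48 hours in 96-well plates. TGI is the concentration that stops growth completely.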
# What was measured:
# Assay in all cases: inhibition of tumour cell growth, NCI panel, 48 h
# A549 NSCLC = system: A549 NSCLC
# ACHN renal = system: ACHN renal
# CAKI-1 renal = system: CAKI-1 renal
# COLO 205 colon = system: COLO 205 colon
# EKVX NSCLC = system: EKVX NSCLC
# HCT-15 colon = system: HCT-15 colon
# HL-60(TB) leukemia = system: HL-60(TB) leukemia
# HOP-92 NSCLC = system: HOP-92 NSCLC
# IGROV1 ovarian = system: IGROV1 ovarian
# LOX IMVI melanoma = system: LOX IMVI melanoma
# M14 melanoma = system: M14 melanoma
# NCI-H226 lung = system: NCI-H226 lung
# NCI-H460 lung = system: NCI-H460 lung
# OVCAR-4 ovarian = system: OVCAR-4 ovarian
# OVCAR-5 ovarian = system: OVCAR-5 ovarian
# PC-3 prostate = system: PC-3 prostate
# SK-OV-3 ovarian = system: SK-OV-3 ovarian
# UO-31 renal = system: UO-31 renal
# HOP-62 NSCLC = system: HOP-62 NSCLC
Structure (SMILES),TGI (A549 NSCLC),TGI (ACHN renal),TGI (CAKI-1 renal),TGI (COLO 205 colon),TGI (EKVX NSCLC),TGI (HCT-15 colon),TGI (HL-60(TB) leukemia),TGI (HOP-92 NSCLC),TGI (IGROV1 ovarian),TGI (LOX IMVI melanoma),TGI (M14 melanoma),TGI (NCI-H226 lung),TGI (NCI-H460 lung),TGI (OVCAR-4 ovarian),TGI (OVCAR-5 ovarian),TGI (PC-3 prostate),TGI (SK-OV-3 ovarian),TGI (UO-31 renal),TGI (HOP-62 NSCLC)
C=CCOc1cc(NC(=S)c2ccoc2C)ccc1OC,> 100 µM,> 100 µM,> 100 µM,> 100 µM,> 100 µM,> 100 µM,> 100 µM,> 100 µM,> 100 µM,> 100 µM,> 100 µM,> 100 µM,> 100 µM,> 100 µM,> 100 µM,> 100 µM,> 100 µM,> 100 µM,
O=NN1C(c2ccccc2)CC(=NO)CC1c1ccccc1 (centres undefined),> 100 µM,> 100 µM,> 100 µM,> 100 µM,> 100 µM,> 100 µM,> 100 µM,> 100 µM,> 100 µM,> 100 µM,> 100 µM,> 100 µM,> 100 µM,> 100 µM,,> 100 µM,> 100 µM,> 100 µM,> 100 µM
COc1cc(C=O)cc(/C=N/n2c3ccccc3c3ccccc32)c1O,> 100 µM,> 100 µM,> 100 µM,52.1 µM,> 100 µM,> 100 µM,> 100 µM,9.58 µM,,> 100 µM,> 100 µM,> 100 µM,> 100 µM,> 100 µM,> 100 µM,> 100 µM,> 100 µM,> 100 µM,> 100 µM
